Source: patent US9682995B2, “Amino-substituted isothiazoles” (BAYER PHARMA AKTIENGESELLSCHAFT, priority 2013, dated 2017)

Legend:
[1] = system: spindle assembly checkpoint; assay: SAC-Formation - Nocodazole-Induced Assay; type: cell-based; details: Homo sapiens; HeLa cells, nocodazole 0.1 μg/ml, 24 h, phosphorylated histone H3 on serine 10
Method in brief: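 HeLa cells were given nocodazole at 0.1 μg/ml final together with compounds (0.005–20 μM, 0.5% DMSO) for 24 h at 37° C. Mitotic cells were counted by phospho-histone H3 Ser10 immunostaining, with cell number from HOECHST 33342, by high-content imaging. The loss of mitotic cells was fitted with a four-parameter Hill equation.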

HeLa = assay: Proliferation assay (crystal violet), HeLa; type: cell-based; details: Homo sapiens, 96 h, 4 days, read-out: Inhibition of proliferation IC50 HeLa
Method in brief: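 Tumour cells seeded at 1000–5000 cells/well in medium with 10% FCS, dosed after 24 h at 0.001–10 μM (0.5% DMSO final) for 4 days. Cell number read by crystal-violet staining after glutaraldehyde fixation (A595), normalised to zero-point plate (0%) and untreated cells (100%); IC50 from 4-parameter fit.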

Structure (SMILES)	IC50 [1] [nM]	IC50 (HeLa) [nM]
Cc1nsc(Nc2cnc(C(F)(F)F)cn2)c1C(=O)Nc1ccc(F)c(F)c1 [Example 81, N-(3,4-Difluorophenyl)-3-methyl-5-{[5-(trifluoromethyl)pyrazin-2-yl]amino}-1,2-thiazole-4-carboxamide]	9.7	380
Cc1nsc(Nc2cncc(Cl)n2)c1C(=O)Nc1ccc(F)c(F)c1 [Example 71, 5-[(6-Chloropyrazin-2-yl)amino]-N-(3,4-difluorophenyl)-3-methyl-1,2-thiazole-4-carboxamide]	94	380
CNC(=O)c1cncc(Nc2snc(C)c2C(=O)Nc2ccc(F)c(F)c2)n1 [Example 70, 6-({4-[(3,4-Difluorophenyl)carbamoyl]-3-methyl-1,2-thiazol-5-yl}amino)-N-methylpyrazine-2-carboxamide]	99	6400
CCOC(=O)c1cnc(Nc2snc(C)c2C(=O)Nc2ccccc2CC)s1 [Example 92, Ethyl 2-({4-[(2-ethylphenyl)-carbamoyl]-3-methyl-1,2-thiazol-5-yl}amino)-1,3-thiazole-5-carboxylate]	1200	10000
Cc1nsc(Nc2cncc(-c3ncco3)n2)c1C(=O)Nc1ccc(Cl)c(F)c1 [Example 63, N-(4-Chloro-3-fluorophenyl)-3-methyl-5-{[6-(1,3-oxazol-2-yl)pyrazin-2-yl]amino}-1,2-thiazole-4-carboxamide]	180	4100
CCc1ccccc1NC(=O)c1c(C)nsc1Nc1nc(C(=O)OC)co1 [Example 91, Methyl 2-({4-[(2-ethylphenyl)carbamoyl]-3-methyl-1,2-thiazol-5-yl}amino)-1,3-oxazole-4-carboxylate]	4200	9700
CCc1cnc(Nc2snc(C)c2C(=O)Nc2ccc(F)c(F)c2)cn1 [Example 79, N-(3,4-Difluorophenyl)-5-[(5-ethylpyrazin-2-yl)amino]-3-methyl-1,2-thiazole-4-carboxamide]	140	800
COC(=O)c1cnc(Nc2snc(C)c2C(=O)Nc2ccc(F)c(F)c2)cn1 [Example 59, Methyl 5-({4-[(3,4-difluorophenyl)carbamoyl]-3-methyl-1,2-thiazol-5-yl}amino)-pyrazine-2-carboxylate]	260	990
COc1ccc(NC(=O)c2c(C)nsc2Nc2ncc(C(=O)N3CCOCC3)s2)cc1F [Example 93, N-(3-Fluoro-4-methoxyphenyl)-3-methyl-5-{[5-(morpholin-4-ylcarbonyl)-1,3-thiazol-2-yl]amino}-1,2-thiazole-4-carboxamide]	1400	10000
CCc1ccccc1NC(=O)c1c(C)nsc1Nc1nccc(-c2ccccc2)n1 [Example 5, N-(2-Ethylphenyl)-3-methyl-5-[(4-phenylpyrimidin-2-yl)amino]-1,2-thiazole-4-carboxamide]	1200	> 10000
COc1cncc(Nc2snc(C)c2C(=O)Nc2ccc(F)c(F)c2)n1 [Example 72, N-(3,4-Difluorophenyl)-5-[(6-methoxypyrazin-2-yl)amino]-3-methyl-1,2-thiazole-4-carboxamide]	350	1700
Cc1nsc(Nc2ccc(C#N)cn2)c1C(=O)Nc1ccc(Cl)c(Cl)c1 [Example 62, 5-[(5-Cyanopyridin-2-yl)amino]-N-(3,4-dichlorophenyl)-3-methyl-1,2-thiazole-4-carboxamide]	8.2	420
CNC(=O)c1ccc(Nc2snc(C)c2C(=O)Nc2ccc(F)c(F)c2)nn1 [Example 80, 6-({4-[(3,4-Difluorophenyl)carbamoyl]-3-methyl-1,2-thiazol-5-yl}amino)-N-methylpyridazine-3-carboxamide]	1900	4400
COc1ccc(NC(=O)c2c(C)nsc2Nc2cncc(C(F)(F)F)n2)cn1 [Example 84, N-(6-methoxypyridin-3-yl)-3-methyl-5-{[6-(trifluoromethyl)pyrazin-2-yl]amino}-1,2-thiazole-4-carboxamide]	58	290
Cc1cncc(Nc2snc(C)c2C(=O)Nc2ccc(F)c(F)c2)n1 [Example 69]	48	7000
Cc1nsc(Nc2cncc(C(F)(F)F)n2)c1C(=O)Nc1ccc(F)c(F)c1 [Example 82, N-(3,4-Difluorophenyl)-3-methyl-5-{[6-(trifluoromethyl)pyrazin-2-yl]amino}-1,2-thiazole-4-carboxamide]	21	110
COc1ccc(NC(=O)c2c(C)nsc2Nc2nc3ccc(F)cc3s2)cn1 [Example 88, 5-[(6-Fluoro-1,3-benzothiazol-2-yl)amino]-N-(6-methoxypyridin-3-yl)-3-methyl-1,2-thiazole-4-carboxamide]	820	2100
COC(=O)c1cncc(Nc2snc(C)c2C(=O)Nc2ccc(F)c(F)c2)n1 [Example 66, Methyl 6-({4-[(3,4-difluorophenyl)carbamoyl]-3-methyl-1,2-thiazol-5-yl}amino)-pyrazine-2-carboxylate]	37	2600
Cc1nsc(Nc2cnc3cc(C(F)(F)F)ccc3n2)c1C(=O)Nc1ccc(Cl)c(F)c1 [Example 68, N-(4-Chloro-3-fluorophenyl)-3-methyl-5-{[6-(trifluoromethyl)quinoxalin-2-yl]amino}-1,2-thiazole-4-carboxamide]	49	1000
Cc1nsc(Nc2cncc(-n3cccn3)n2)c1C(=O)Nc1ccc(Cl)c(F)c1 [Example 67, N-(4-Chloro-3-fluorophenyl)-3-methyl-5-{[6-(1H-pyrazol-1-yl)pyrazin-2-yl]amino}-1,2-thiazole-4-carboxamide]	12	770
Cc1nsc(Nc2cncc(-n3cccn3)n2)c1C(=O)Nc1ccc(F)c(F)c1 [Example 64, N-(3,4-Difluorophenyl)-3-methyl-5-{[6-(1H-pyrazol-1-yl)pyrazin-2-yl]amino}-1,2-thiazole-4-carboxamide]	97	1600
COc1ccc(NC(=O)c2c(C)nsc2Nc2cnc(C(F)(F)F)cn2)cn1 [Example 85, N-(6-methoxypyridin-3-yl)-3-methyl-5-{[5-(trifluoromethyl)pyrazin-2-yl]amino}-1,2-thiazole-4-carboxamide]	6.2	1000
CCc1ccccc1NC(=O)c1c(C)nsc1Nc1ccncn1 [Example 2, N-(2-Ethylphenyl)-3-methyl-5-(pyrimidin-4-ylamino)-1,2-thiazole-4-carboxamide]	4200	> 10000
CCNc1cncc(Nc2snc(C)c2C(=O)Nc2ccc(F)c(F)c2)n1 [Example 78, N-(3,4-Difluorophenyl)-5-{[6-(ethylamino)pyrazin-2-yl]amino}-3-methyl-1,2-thiazole-4-carboxamide]	390	2500
COc1ccc(NC(=O)c2c(C)nsc2Nc2nc3ccc(C)cc3s2)cn1 [Example 90, N-(6-Methoxypyridin-3-yl)-3-methyl-5-[(6-methyl-1,3-benzothiazol-2-yl)amino]-1,2-thiazole-4-carboxamide]	4200	10000
Cc1nsc(Nc2cnc(Br)cn2)c1C(=O)Nc1ccc(F)c(F)c1 [Example 77, 5-[(5-Bromopyrazin-2-yl)amino]-N-(3,4-difluorophenyl)-3-methyl-1,2-thiazole-4-carboxamide]	18	200
